Entries after “also recorded” stand apart in the source; their conditions may differ.
Columns and labels:
[1] = test system: Aβ toxicity to PC12 cells; assay: MTT cell viability assay, rescue from Abeta toxicity, PC12 cells; assay type: cell-based; settings: Table 7; scaled cell survival rate, buffer-treated cell 100%, Abeta-treated cell 0%; Abeta 0.5 μM; 12 h incubation
Text: (§1) We tested candidate compounds by the MTT-based cell proliferation/viability assay, as described on the ATCC web site. Briefly, the ATCC MTT Cell Proliferation Assay quantitates the reduction of the yellow tetrazolium salt (MTT) in response to an external factor, such as treatment with a compound of the present invention, as a measure of a cell population's response to the external factor. The assay measures the cell proliferation rate and conversely, when metabolic events lead to apoptosis or necrosis, the reduction in cell viability. In our tests, Hela and PC12 cell lines were used to assess the toxic effect of Abeta protein. Abeta at 0.5 μM was a positive control. The small molecule inhibitors were added to samples with different concentrations (such as 2.5 μM). After 12 h incubation at room temperature, the absorbance of reduced MIT was measured at 570 nm. Each of the experiments was repeated 3 times with 4 replicates per sample per concentration. Our MTT cell viability assay quantified the percentage of survival cells upon the treatment of the mixture of Abeta and compound inhibitors. The rescuing percentage of each compound was calculated by normalizing the survival percentage using the buffer-treated cell as 100% viability and Abeta-treated cell as 0% viability.

[2] = biological target: T1, KLVFFA (SEQ ID NO: 1) fibers (Homo sapiens, UniProt P05067); assay: 1H NMR titration with KLVFFA fibers; assay type: binding; settings: compound 100 μM, increasing KLVFFA fiber concentrations, 283 K; read-out: apparent dissociation constant (Kd)
T1 construct: host or cells: chemically synthesized peptide
Experimental: As a validation of our computational approach, we used nuclear magnetic resonance (NMR) to characterize the interactions between our BAF compounds and KLVFFA (SEQ ID NO: 1) and Aβ fibers.
NMR samples contained 550 μL of designed compounds were added from 1 mM stocks in H2O to a final concentration of 100 μM. Fibrillar KLVFFA (SEQ ID NO: 1) and Abeta were added at the indicated concentrations. 500 MHz ^1H NMR spectra were collected on a Bruker DRX500 at 283 K. H2O resonance was suppressed through presaturation. Spectra were processed with XWINNMR 3.6.

Aβ fibrillation = Aβ fibrillation (Homo sapiens, UniProt P05067); assay: Electron microscopy (EM) of Aβ with BAF compounds; settings: Aβ with compound right before adding to the cell medium
[3] = test system: Aβ toxicity to Hela cells; assay: MTT cell viability assay, rescue from Abeta toxicity, Hela cells; assay type: cell-based; settings: Table 7; scaled cell survival rate, buffer-treated cell 100%, Abeta-treated cell 0%; Abeta 0.5 μM; 12 h incubation
Text: as §1

[4] = test system: Aβ toxicity to Hela and PC12 cell lines; assay: MTT cell viability assay, Abeta toxicity, cell line not given; assay type: cell-based; settings: FIG. 17B
Text: as §1

[5] = biological target: T2, VQIVYK (SEQ ID NO: 2) segment from the tau protein (Homo sapiens, UniProt P10636); assay: LC-MSMS analysis of co-crystals, molar ratio, VQIVYK
T2 construct: host or cells: chemically synthesized peptide
Text: Liquid chromatography tandem mass spectrometry (LC-MSMS) was used to measure the molar ratios of the peptide segments and the small molecules within the crystals. Authentic samples of the peptides and each of the small molecules were used to prepare standard response curves. Crystals from each of the four mixtures of peptides and small compounds were individually picked (using a sharpened glass capillary) and re-dissolved in 5%-10% acetonitrile. The samples were divided into two aliquots, one for the peptide analyses and the other for the small molecule analyses, and the amount of each component in the samples was interpolated using the standard curves.
Peptide standards (dry powder of VQIVYK (SEQ ID NO: 2) and KLVFFA (SEQ ID NO: 1)) were dissolved in water and prepared in concentrations ranging from 0.05 μM to 0.01 mM in 0.1% TFA. […] Data were collected in the positive ion multiple reaction monitoring (MRM) mode in which the intensity of specific parent→fragment ion transitions were recorded (VQIVYK (SEQ ID NO: 2), m/z 749.5→341.3, 749.5→409.4, 749.5→440.3, 749.5→522.5; KLVFFA (SEQ ID NO: 1), 724.4→84, 724.4→488.3, 362.7→84, 362.7→120.1). […]

Sequence of Aβ fibrillation (P05067 672-713): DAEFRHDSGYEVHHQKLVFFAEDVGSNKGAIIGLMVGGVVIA

SMILES	Kd [2] [µM]	inhibition of Aβ fibrillation (EM) (Aβ fibrillation)	VQIVYK segments for each small molecule [5]	Rescuing Percentage PC12 [1] [%]	Rescuing Percentage Hela [3] [%]	dose dependence of reduction of Aβ cytotoxicity [4]
O=c1c(O)c(-c2cc(O)c(O)c(O)c2)oc2cc(O)cc(O)c12 [BAF26]				85.5	51.4	
CCCN1CCc2cc(O)cc3c2C1Cc1ccc(O)c(O)c1-3 (centres unmarked) [BAF31]		do not inhibit Aβ fibrillation		92.6	83.0	reduce Aβ cytotoxicity in a dose dependent manner; also recorded: reduce Aβ cyto-toxicity in a dose dependent manner
CC(=C(C#N)C#N)c1ccc2cc(N(C)C)ccc2c1 [DDNP, 1,1-Dicyano-2-[6-(dimethylamino)naphthalen-2-yl]propene]			~400			
O=S(=O)(O)c1cc(S(=O)(=O)O)c2c(/N=N/c3ccccc3)c(O)ccc2c1 [Orange-G, reference compound]	~43					
COc1cc(/C=C/C(=O)CC(=O)/C=C/c2ccc(O)c(OC)c2)ccc1O [curcumin, Curcumin]			~100			

Second part, led by results:

Kd [2] [µM]	inhibition of Aβ fibrillation (EM) (Aβ fibrillation)	VQIVYK segments for each small molecule [5]	SMILES	Rescuing Percentage PC12 [1] [%]	Rescuing Percentage Hela [3] [%]	dose dependence of reduction of Aβ cytotoxicity [4]
~12	do not inhibit Aβ fibrillation		O=C1OC2(c3ccccc31)c1cc(Br)c(O)c(Br)c1Oc1c2cc(Br)c(O)c1Br [BAF1]	44.3	41.3	
~24	do not inhibit Aβ fibrillation		Cc1ccc(O)c(N=Nc2c(O)cc(S(=O)(=O)O)c3ccccc23)c1 [BAF8]	25.1	27.1	
